Assay in all cases: biochemical
Holding throughout (format): biochemical

The target in test [1] is T1, 382 unique human kinases (Homo sapiens, UniProt P14616).
T1 construct: purchased Reaction Biology (HotSpot contract assay)
The note with it: kinase IRR/INSRR, compound 10 uM; for remaining activity at 10 µM: read-out: % Enzyme Activity (relative to DMSO controls).

For test [2], the target named is T2, 382 unique human kinases (Homo sapiens, UniProt P05129).
T2 construct: purchased Reaction Biology (HotSpot contract assay)
The note with it: kinase PKCg, compound 10 uM; for remaining activity at 10 µM: read-out: % Enzyme Activity (relative to DMSO controls).

The target in test [3] is T3, 382 unique human kinases (Homo sapiens, UniProt P08922, G2032R).
T3 construct: purchased Reaction Biology (HotSpot contract assay)
The note with it: ROS1 (G2032R), 10 uM; for remaining activity at 10 µM: read-out: % Enzyme Activity (relative to DMSO controls).

The target of test [4] is T4, 382 unique human kinases (Homo sapiens, UniProt Q00526).
T4 construct: purchased Reaction Biology (HotSpot contract assay)
T4 sequence (Q00526 whole entry): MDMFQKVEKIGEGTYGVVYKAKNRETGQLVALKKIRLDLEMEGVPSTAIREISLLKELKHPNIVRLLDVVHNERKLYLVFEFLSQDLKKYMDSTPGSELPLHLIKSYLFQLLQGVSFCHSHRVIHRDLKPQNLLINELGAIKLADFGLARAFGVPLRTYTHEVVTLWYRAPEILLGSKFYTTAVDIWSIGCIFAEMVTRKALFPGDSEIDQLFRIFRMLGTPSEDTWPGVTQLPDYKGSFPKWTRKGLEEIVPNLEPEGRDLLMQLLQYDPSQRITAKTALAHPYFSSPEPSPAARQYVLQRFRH
The note with it: kinase CDK3/cyclin E, compound 10 uM; for remaining activity at 10 µM: read-out: % Enzyme Activity (relative to DMSO controls).

The target in test [5] is T5, 382 unique human kinases (Homo sapiens, UniProt P21802, E565G).
T5 construct: purchased Reaction Biology (HotSpot contract assay)
T5 sequence (P21802 22-821 E565G): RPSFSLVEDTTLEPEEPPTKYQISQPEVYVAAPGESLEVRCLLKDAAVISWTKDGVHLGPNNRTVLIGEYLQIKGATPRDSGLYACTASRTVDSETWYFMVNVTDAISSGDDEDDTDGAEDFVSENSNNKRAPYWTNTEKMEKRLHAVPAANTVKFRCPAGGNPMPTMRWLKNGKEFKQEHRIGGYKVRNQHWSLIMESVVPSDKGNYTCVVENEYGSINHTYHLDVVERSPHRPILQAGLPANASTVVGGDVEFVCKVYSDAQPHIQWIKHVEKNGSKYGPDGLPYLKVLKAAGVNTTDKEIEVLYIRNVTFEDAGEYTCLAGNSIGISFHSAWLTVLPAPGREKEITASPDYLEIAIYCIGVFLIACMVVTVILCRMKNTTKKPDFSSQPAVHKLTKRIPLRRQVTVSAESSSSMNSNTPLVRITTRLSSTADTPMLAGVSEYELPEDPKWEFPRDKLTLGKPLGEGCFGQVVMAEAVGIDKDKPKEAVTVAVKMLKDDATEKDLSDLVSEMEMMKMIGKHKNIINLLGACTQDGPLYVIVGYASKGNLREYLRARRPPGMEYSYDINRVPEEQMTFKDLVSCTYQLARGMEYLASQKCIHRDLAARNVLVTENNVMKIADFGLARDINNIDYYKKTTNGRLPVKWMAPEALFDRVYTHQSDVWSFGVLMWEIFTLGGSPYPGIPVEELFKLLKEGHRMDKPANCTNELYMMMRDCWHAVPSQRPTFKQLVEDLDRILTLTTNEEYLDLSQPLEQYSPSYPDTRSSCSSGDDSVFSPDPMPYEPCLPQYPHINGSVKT
The note with it: kinase FGFR2 (E565G), compound 10 uM; for remaining activity at 10 µM: read-out: % Enzyme Activity (relative to DMSO controls).

The target in test [6] is T6, 382 unique human kinases (Homo sapiens, UniProt P41240).
T6 construct: purchased Reaction Biology (HotSpot contract assay)
T6 sequence (P41240 whole entry): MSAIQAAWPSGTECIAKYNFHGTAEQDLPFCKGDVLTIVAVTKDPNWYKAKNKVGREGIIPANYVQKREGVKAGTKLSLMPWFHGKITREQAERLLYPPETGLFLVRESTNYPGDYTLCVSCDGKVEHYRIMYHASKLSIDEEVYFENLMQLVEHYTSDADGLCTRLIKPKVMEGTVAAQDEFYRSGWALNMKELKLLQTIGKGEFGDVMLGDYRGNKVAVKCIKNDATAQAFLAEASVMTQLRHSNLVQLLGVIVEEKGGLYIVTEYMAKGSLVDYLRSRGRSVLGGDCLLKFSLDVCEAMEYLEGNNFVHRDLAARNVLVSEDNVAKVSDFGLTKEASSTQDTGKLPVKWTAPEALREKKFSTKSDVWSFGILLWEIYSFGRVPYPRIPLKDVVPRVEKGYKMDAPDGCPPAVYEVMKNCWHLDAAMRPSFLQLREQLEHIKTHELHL
The note with it: CSK, 10 uM; for remaining activity at 10 µM: read-out: % Enzyme Activity (relative to DMSO controls).

In test [7] the target is T7, 382 unique human kinases (Homo sapiens, UniProt P07949, L790F).
T7 construct: purchased Reaction Biology (HotSpot contract assay)
The note with it: RET (L790F), 10 uM; for remaining activity at 10 µM: read-out: % Enzyme Activity (relative to DMSO controls).

Test [8] deals with T8, 382 unique human kinases (Homo sapiens, UniProt Q9BZL6).
T8 construct: purchased Reaction Biology (HotSpot contract assay)
T8 sequence (Q9BZL6 1-878): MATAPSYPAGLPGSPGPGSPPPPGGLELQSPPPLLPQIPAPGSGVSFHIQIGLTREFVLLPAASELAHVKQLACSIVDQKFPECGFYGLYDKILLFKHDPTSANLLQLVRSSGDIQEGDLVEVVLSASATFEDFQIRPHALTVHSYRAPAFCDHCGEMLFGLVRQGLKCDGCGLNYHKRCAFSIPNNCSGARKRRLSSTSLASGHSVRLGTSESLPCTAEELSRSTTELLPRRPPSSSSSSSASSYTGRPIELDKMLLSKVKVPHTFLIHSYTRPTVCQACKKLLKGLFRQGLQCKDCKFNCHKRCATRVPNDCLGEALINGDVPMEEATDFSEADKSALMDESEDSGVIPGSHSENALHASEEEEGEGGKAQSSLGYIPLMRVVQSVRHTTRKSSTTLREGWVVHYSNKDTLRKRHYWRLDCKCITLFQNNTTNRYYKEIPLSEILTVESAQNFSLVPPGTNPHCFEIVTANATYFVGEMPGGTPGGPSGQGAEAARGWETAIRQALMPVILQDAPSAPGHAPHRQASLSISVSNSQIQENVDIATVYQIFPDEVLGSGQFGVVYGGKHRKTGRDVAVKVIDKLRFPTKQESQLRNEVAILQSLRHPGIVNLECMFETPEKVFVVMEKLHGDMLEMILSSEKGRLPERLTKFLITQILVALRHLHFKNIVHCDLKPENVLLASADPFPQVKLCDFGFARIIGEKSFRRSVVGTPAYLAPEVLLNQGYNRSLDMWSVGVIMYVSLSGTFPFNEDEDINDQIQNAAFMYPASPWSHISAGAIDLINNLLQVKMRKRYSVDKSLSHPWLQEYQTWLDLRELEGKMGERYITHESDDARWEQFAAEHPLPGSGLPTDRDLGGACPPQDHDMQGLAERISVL
The note with it: kinase PKD2/PRKD2, compound 10 uM; for remaining activity at 10 µM: read-out: % Enzyme Activity (relative to DMSO controls).

For test [9], the target named is T9, 382 unique human kinases (Homo sapiens, UniProt Q13188).
T9 construct: purchased Reaction Biology (HotSpot contract assay)
T9 sequence (Q13188 1-491): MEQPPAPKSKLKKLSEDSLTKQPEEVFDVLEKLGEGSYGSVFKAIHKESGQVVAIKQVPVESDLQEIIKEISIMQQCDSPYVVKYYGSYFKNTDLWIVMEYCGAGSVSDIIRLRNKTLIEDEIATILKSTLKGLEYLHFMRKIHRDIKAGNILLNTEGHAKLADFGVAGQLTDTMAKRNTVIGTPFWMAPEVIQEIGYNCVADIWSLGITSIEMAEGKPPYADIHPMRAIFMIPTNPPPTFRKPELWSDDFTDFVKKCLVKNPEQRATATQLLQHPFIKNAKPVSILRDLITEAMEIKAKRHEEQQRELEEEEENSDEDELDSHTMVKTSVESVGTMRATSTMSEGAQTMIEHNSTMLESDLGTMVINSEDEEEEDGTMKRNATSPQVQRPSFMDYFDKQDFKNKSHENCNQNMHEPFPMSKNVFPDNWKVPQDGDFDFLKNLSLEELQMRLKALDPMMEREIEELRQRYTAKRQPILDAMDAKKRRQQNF
The note with it: kinase MST2/STK3, compound 10 uM; for remaining activity at 10 µM: read-out: % Enzyme Activity (relative to DMSO controls).

Test [10] concerns the target T10, 382 unique human kinases (Homo sapiens, UniProt Q8N5S9).
T10 construct: purchased Reaction Biology (HotSpot contract assay)
The note with it: CAMKK1, 10 uM; for remaining activity at 10 µM: read-out: % Enzyme Activity (relative to DMSO controls).

Test [11] concerns the target T11, 382 unique human kinases (Homo sapiens, UniProt Q16513).
T11 construct: purchased Reaction Biology (HotSpot contract assay)
The note with it: PKN2/PRK2, 10 uM; for remaining activity at 10 µM: read-out: % Enzyme Activity (relative to DMSO controls).

For test [12], the target named is T12, 382 unique human kinases (Homo sapiens, UniProt Q02763, Y897S).
T12 construct: purchased Reaction Biology (HotSpot contract assay)
T12 sequence (Q02763 23-1124 Y897S): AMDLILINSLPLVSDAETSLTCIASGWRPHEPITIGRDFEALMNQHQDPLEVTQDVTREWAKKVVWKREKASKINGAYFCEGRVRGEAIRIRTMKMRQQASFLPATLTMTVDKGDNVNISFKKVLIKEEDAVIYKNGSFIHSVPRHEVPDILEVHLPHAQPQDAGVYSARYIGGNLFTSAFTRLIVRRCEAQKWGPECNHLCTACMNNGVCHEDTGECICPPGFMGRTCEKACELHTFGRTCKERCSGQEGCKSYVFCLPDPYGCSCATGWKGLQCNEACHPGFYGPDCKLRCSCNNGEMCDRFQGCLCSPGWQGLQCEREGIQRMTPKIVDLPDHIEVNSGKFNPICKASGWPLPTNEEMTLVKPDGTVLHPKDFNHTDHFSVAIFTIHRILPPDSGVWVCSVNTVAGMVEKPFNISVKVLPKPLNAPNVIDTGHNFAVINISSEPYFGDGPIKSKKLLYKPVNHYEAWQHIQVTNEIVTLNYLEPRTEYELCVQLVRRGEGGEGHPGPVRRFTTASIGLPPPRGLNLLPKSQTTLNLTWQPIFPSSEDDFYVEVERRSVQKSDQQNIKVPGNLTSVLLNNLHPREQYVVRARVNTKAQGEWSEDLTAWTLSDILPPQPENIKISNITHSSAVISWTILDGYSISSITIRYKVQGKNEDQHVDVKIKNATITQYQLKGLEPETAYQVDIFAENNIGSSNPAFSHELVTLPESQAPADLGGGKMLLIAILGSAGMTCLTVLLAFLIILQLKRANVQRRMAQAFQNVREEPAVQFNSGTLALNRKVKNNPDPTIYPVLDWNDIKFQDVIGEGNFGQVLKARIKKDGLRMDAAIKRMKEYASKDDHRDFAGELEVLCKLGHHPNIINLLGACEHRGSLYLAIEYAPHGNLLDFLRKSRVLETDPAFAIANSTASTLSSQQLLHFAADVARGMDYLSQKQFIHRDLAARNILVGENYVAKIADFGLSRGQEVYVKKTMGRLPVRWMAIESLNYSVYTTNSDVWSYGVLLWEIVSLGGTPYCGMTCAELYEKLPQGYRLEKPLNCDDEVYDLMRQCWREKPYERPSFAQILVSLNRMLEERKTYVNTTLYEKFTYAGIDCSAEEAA
The note with it: TIE2 (Y897S), 10 uM; for remaining activity at 10 µM: read-out: % Enzyme Activity (relative to DMSO controls).

T10 sequence (Q8N5S9 whole entry): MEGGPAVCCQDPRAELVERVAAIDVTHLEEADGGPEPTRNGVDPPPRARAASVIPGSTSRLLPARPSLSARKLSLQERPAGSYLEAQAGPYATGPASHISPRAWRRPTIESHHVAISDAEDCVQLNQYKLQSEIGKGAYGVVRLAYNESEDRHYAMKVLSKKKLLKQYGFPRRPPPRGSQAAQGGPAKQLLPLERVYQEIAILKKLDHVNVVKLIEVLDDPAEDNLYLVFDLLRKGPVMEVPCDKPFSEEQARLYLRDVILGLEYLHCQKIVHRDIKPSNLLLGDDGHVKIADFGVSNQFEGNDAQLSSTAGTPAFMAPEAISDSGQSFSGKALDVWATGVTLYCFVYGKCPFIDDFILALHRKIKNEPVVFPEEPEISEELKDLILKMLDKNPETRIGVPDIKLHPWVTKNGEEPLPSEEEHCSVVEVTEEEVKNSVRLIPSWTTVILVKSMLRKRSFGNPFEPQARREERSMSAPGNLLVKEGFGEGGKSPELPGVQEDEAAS
T11 sequence (Q16513 whole entry): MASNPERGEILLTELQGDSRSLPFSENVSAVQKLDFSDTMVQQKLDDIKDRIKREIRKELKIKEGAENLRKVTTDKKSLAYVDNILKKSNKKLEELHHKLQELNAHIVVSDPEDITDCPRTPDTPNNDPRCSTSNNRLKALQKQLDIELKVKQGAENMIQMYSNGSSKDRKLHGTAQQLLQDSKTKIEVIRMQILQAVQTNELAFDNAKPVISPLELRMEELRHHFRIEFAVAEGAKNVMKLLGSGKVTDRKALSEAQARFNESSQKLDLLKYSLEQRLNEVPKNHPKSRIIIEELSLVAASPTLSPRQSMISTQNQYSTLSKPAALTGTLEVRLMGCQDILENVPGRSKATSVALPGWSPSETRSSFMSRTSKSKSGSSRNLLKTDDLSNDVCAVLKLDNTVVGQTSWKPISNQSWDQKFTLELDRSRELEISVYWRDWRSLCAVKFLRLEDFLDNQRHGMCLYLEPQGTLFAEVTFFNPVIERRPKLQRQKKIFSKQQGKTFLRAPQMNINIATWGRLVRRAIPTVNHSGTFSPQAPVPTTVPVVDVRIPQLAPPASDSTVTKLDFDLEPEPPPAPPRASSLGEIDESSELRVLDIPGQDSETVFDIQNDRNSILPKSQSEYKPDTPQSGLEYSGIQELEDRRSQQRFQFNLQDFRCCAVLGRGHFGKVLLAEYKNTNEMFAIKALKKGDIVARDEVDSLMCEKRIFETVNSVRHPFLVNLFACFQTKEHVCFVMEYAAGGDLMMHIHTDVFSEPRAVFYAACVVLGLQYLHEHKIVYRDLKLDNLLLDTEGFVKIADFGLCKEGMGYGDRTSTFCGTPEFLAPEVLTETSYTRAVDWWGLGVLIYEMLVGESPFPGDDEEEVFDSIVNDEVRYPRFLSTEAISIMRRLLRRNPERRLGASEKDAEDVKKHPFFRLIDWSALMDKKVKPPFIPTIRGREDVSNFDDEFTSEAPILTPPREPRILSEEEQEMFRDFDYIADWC

As for `CC(C)c1cc(-c2n[nH]c(=O)n2-c2ccc3c(ccn3C)c2)c(O)cc1O` [Ganetespib (STA9090)], the remaining activity at 10 µM in test [1] is 85.7%; in test [2] it was 91.3%; in [3], 66.8%; in test [4] it was 82.2%; in test [5], 79.4%; in test [6] it was 70.3%. Further, the remaining activity at 10 µM was determined as 68.1% in test [7], 87% in test [8] and 78.8% in test [9].

In the case of `CC(C)c1cc(-c2n[nH]c(=O)n2-c2ccc3c(ccn3C)c2)c(O)cc1O` [Ganetespib], the remaining activity at 10 µM in test [10] was determined as 99%; in test [11] it was 95.7%; in test [12], 98.7%.

Take `CCNC(=O)c1noc(-c2cc(C(C)C)c(O)cc2O)c1-c1ccc(CN2CCOCC2)cc1` [Luminespib (AUY-922)]: the “% Enzyme Activity (relative to DMSO controls)” value in test [1] turned out to be 101.61%; in [2] it was 97.02%; in [3] it was 106.59%; in test [4], 102.34%; in test [5], 97.20%; in test [6], 73.41%. Moreover, the “% Enzyme Activity (relative to DMSO controls)” value was found to be 91.09% in [7], 97.40% in test [8] and 89.89% in test [9]. Further, the remaining activity at 10 µM in [1] worked out at 102%; in test [2], 99.7%; in test [3], 109%; in test [4] it was 103%; in test [5], 98.6%; in test [6], 74.1%. In addition, the remaining activity at 10 µM in test [7] is 91.5%; in test [8] it was 99.3%; in [9], 93.3%.

In the case of `CCNC(=O)c1noc(-c2cc(C(C)C)c(O)cc2O)c1-c1ccc(CN2CCOCC2)cc1` [Luminespib], the “% Enzyme Activity (relative to DMSO controls)” value in [10] is on record as 103.58%; in test [11], 98.60%; in test [12] it was 116.81%. Moreover, the remaining activity at 10 µM in test [10] turned out to be 104%; in test [11] it was 99.3%; in [12], 117%.

These data come from article PMC8550792, “Evolution of kinase polypharmacology across HSP90 drug discovery” (Cell Chemical Biology, 2021).
